The supplement of paper PMC10307832

Assays:
Assay in all cases: relative viability (nuclei count vs DMSO), 5 days (fraction); higher = more cells survive
NCI-H2228 = test system: NCI-H2228
Method in brief: (§1)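 Lung cancer cell lines in 1536-well plates were dosed by pin tool the day after seeding, either with one drug alone or with a fixed anchor-drug dose plus five library-drug doses (not always all listed) in √10 steps. After 5 days, cells were fixed and their nuclei stained in one step (final 0.05% Triton X-100, 1% formaldehyde, 1 ug/ml Hoechst), then counted on 4× images. Relative viability is the nuclei count in treated wells divided by that in vehicle wells. Values are medians of duplicate plates.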

NCI-H2170 = test system: NCI-H2170
Method in brief: as §1

NCI-H1792 = test system: NCI-H1792
Method in brief: as §1

NCI-H2009 = test system: NCI-H2009
Method in brief: as §1

NCI-H1734 = test system: NCI-H1734
Method in brief: as §1

EKVX = test system: EKVX
Method in brief: as §1

NCI-H596 = test system: NCI-H596
Method in brief: as §1

NCI-H2342 = test system: NCI-H2342
Method in brief: as §1

NCI-H2405 = test system: NCI-H2405
Method in brief: as §1

HARA = test system: HARA
Method in brief: as §1

NCI-H647 = test system: NCI-H647
Method in brief: as §1

NCI-H2087 = test system: NCI-H2087
Method in brief: as §1

LOU-NH91 = test system: LOU-NH91
Method in brief: as §1

NCI-H1395 = test system: NCI-H1395
Method in brief: as §1

NCI-H1355 = test system: NCI-H1355
Method in brief: as §1

BEN = test system: BEN
Method in brief: as §1

SK-MES-1 = test system: SK-MES-1
Method in brief: as §1

SK-LU-1 = test system: SK-LU-1
Method in brief: as §1

LC-2-ad = test system: LC-2-ad
Method in brief: as §1

NCI-H1437 = test system: NCI-H1437
Method in brief: as §1

NCI-H661 = test system: NCI-H661
Method in brief: as §1

HCC-44 = test system: HCC-44
Method in brief: as §1

HCC-827 = test system: HCC-827
Method in brief: as §1

HCC-366 = test system: HCC-366
Method in brief: as §1

Work on `CC(C)Oc1cc(Nc2nc(N[C@@H](C)c3ccc(F)cn3)ncc2Cl)n[nH]1` [AZ23] + Nc1nc2[nH]cc(CCc3ccc(C(=O)N[C@@H](CCC(=O)O)C(=O)O)cc3)c2c(=O)[nH]1 [Pemetrexed] (partner 0.2 µM) yielded a relative viability (NCI-H2228; first compound 0.01 µM) of 0.301, a relative viability (NCI-H2228; first compound 0.03162 µM) of 0.407 and a relative viability (NCI-H2228; first compound 0.3162 µM) of 0.354. For the same molecule, the relative viability (NCI-H2170; first compound 0.01 µM) was 0.261, the relative viability (NCI-H2170; first compound 0.03162 µM) was 0.265 and the relative viability (NCI-H2170; first compound 0.3162 µM) was 0.256. It also gave a relative viability (NCI-H1792; first compound 0.01 µM) of 0.813, a relative viability (NCI-H1792; first compound 0.03162 µM) of 0.912 and a relative viability (NCI-H1792; first compound 0.3162 µM) of 1. For the same molecule, the relative viability (NCI-H2009; first compound 0.01 µM) was 1.16, the relative viability (NCI-H2009; first compound 0.03162 µM) was 1.1 and the relative viability (NCI-H2009; first compound 0.3162 µM) was 1.02. For the same molecule, the relative viability (NCI-H1734; first compound 0.01 µM) was 0.358, the relative viability (NCI-H1734; first compound 0.03162 µM) was 0.454 and the relative viability (NCI-H1734; first compound 0.3162 µM) was 0.41. For the same molecule, the relative viability (EKVX; first compound 0.01 µM) was 0.24, the relative viability (EKVX; first compound 0.03162 µM) was 0.5 and the relative viability (EKVX; first compound 0.3162 µM) was 0.381. The relative viability (NCI-H596; first compound 0.01 µM) was 0.422, the relative viability (NCI-H596; first compound 0.03162 µM) was 0.55 and the relative viability (NCI-H596; first compound 0.3162 µM) was 0.509. The relative viability (NCI-H2342; first compound 0.01 µM) was 0.903, the relative viability (NCI-H2342; first compound 0.03162 µM) was 0.811 and the relative viability (NCI-H2342; first compound 0.3162 µM) was 0.776. The relative viability (NCI-H2405; first compound 0.01 µM) was 1.02, the relative viability (NCI-H2405; first compound 0.03162 µM) was 1.04 and the relative viability (NCI-H2405; first compound 0.3162 µM) was 0.879. For the same molecule, the relative viability (HARA; first compound 0.01 µM) was 0.147, the relative viability (HARA; first compound 0.03162 µM) was 0.309 and the relative viability (HARA; first compound 0.3162 µM) was 0.281. It also gave a relative viability (NCI-H647; first compound 0.01 µM) of 0.151, a relative viability (NCI-H647; first compound 0.03162 µM) of 0.192 and a relative viability (NCI-H647; first compound 0.3162 µM) of 0.182. The relative viability (NCI-H2087; first compound 0.01 µM) was 0.727, the relative viability (NCI-H2087; first compound 0.03162 µM) was 0.691 and the relative viability (NCI-H2087; first compound 0.3162 µM) was 0.766. For the same molecule, the relative viability (LOU-NH91; first compound 0.01 µM) was 0.505, the relative viability (LOU-NH91; first compound 0.03162 µM) was 0.386 and the relative viability (LOU-NH91; first compound 0.3162 µM) was 0.394. It also gave a relative viability (NCI-H1395; first compound 0.03162 µM) of 0.97, a relative viability (NCI-H1395; first compound 0.3162 µM) of 0.929 and a relative viability (NCI-H1355; first compound 0.01 µM) of 1.13. For the same molecule, the relative viability (NCI-H1355; first compound 0.03162 µM) was 1.11, the relative viability (NCI-H1355; first compound 0.3162 µM) was 1.05 and the relative viability (BEN; first compound 0.01 µM) was 0.634. The relative viability (BEN; first compound 0.03162 µM) was 0.892, the relative viability (BEN; first compound 0.3162 µM) was 0.732 and the relative viability (SK-MES-1; first compound 0.03162 µM) was 1.03. The relative viability (SK-MES-1; first compound 0.3162 µM) was 1.03, the relative viability (SK-LU-1; first compound 0.03162 µM) was 1.13 and the relative viability (SK-LU-1; first compound 0.3162 µM) was 1.06. For the same molecule, the relative viability (LC-2-ad; first compound 0.01 µM) was 0.275, the relative viability (LC-2-ad; first compound 0.03162 µM) was 0.279 and the relative viability (LC-2-ad; first compound 0.3162 µM) was 0.297. For the same molecule, the relative viability (NCI-H1437; first compound 0.01 µM) was 0.283, the relative viability (NCI-H1437; first compound 0.03162 µM) was 0.345 and the relative viability (NCI-H1437; first compound 0.3162 µM) was 0.331. It also gave a relative viability (NCI-H661; first compound 0.01 µM) of 0.864, a relative viability (NCI-H661; first compound 0.03162 µM) of 0.925 and a relative viability (NCI-H661; first compound 0.3162 µM) of 0.927. It also gave a relative viability (HCC-44; first compound 0.01 µM) of 0.373, a relative viability (HCC-44; first compound 0.03162 µM) of 0.66 and a relative viability (HCC-44; first compound 0.3162 µM) of 0.698. For the same molecule, the relative viability (HCC-827; first compound 0.01 µM) was 0.2, the relative viability (HCC-827; first compound 0.03162 µM) was 0.27 and the relative viability (HCC-827; first compound 0.3162 µM) was 0.242. It also gave a relative viability (HCC-366; first compound 0.01 µM) of 0.0994, a relative viability (HCC-366; first compound 0.03162 µM) of 0.186 and a relative viability (HCC-366; first compound 0.3162 µM) of 0.171.
